These results are taken from patent US20190353647A1, “NOVEL REAL-TIME MULTIPLEXED, MULTI-COLOR BIOLUMINESCENCE RESONANCE ENERGY TRANSFER ASSAY, APPARATUS, AND USES THEREOF” (Universite de Bordeaux, priority 2016, published 2019).

Common to all, as to assay type: cell-based
One assay concerns the target TRPV4 (Homo sapiens, UniProt Q9HBA0). Description: Three-color spectral BRET, TRPV4-Luc/LSSmOrange-CaM component in mixed HEK293T cells. More on the design: expressed in transfected cells; host or cells: HEK293T (mixed with two other transfected populations). As to conditions: 100 nM GSK101 injected at 75 seconds, real time, mixed cell population. From the text: (§1) FIG. 2: Multiplexing measurements of TRPV activity using multicolor BRET. (A) Example of a three-color BRET spectrum and its decomposition, measured in a coculture containing three HEK293T subpopulations transfected with aquamarine-Luc, mAmetrine-Luc, or LSSmOrange-Luc. The grey dots represent the experimental data. Black, light grey, medium grey, and grey solid lines represent the spectral components of Luc, aquamarine, mAmetrine, and LSSmOrange, respectively. […] Results represent the mean of three independent experiments.
(§2) Full BRET spectra were acquired using an optical fiber linked to a Spectra Pro 2300i spectrometer, equipped with a liquid-nitrogen-cooled CCD camera for recording the full visible spectrum (Acton Optics, Acton, Mass., USA). The bioluminescent signal was recorded from transfected cells seeded onto a glass coverslip and placed into a white opaque measurement chamber made of Teflon® and containing an isotonic solution (NaCl 145 mM, KCl 5 mM, KH2PO4 4 mM, CaCl2 1 mM, MgSO4 1 mM, Glucose 10 mM). The temperature of the cell buffer was regulated using an Eppendorf® ThermoStat Plus and measured in real time using a fiber-optic temperature measurement Luxtron 812 system (Lumasense technologies, Santa Clara, Calif., USA). […]
(In general: In BRET a luciferase serves as donor, and the signal depends on an acceptor being close.)

In a further assay the target is T1, TRPV3 (Homo sapiens, UniProt Q8NET8).
T1 sequence (Q8NET8 1-790): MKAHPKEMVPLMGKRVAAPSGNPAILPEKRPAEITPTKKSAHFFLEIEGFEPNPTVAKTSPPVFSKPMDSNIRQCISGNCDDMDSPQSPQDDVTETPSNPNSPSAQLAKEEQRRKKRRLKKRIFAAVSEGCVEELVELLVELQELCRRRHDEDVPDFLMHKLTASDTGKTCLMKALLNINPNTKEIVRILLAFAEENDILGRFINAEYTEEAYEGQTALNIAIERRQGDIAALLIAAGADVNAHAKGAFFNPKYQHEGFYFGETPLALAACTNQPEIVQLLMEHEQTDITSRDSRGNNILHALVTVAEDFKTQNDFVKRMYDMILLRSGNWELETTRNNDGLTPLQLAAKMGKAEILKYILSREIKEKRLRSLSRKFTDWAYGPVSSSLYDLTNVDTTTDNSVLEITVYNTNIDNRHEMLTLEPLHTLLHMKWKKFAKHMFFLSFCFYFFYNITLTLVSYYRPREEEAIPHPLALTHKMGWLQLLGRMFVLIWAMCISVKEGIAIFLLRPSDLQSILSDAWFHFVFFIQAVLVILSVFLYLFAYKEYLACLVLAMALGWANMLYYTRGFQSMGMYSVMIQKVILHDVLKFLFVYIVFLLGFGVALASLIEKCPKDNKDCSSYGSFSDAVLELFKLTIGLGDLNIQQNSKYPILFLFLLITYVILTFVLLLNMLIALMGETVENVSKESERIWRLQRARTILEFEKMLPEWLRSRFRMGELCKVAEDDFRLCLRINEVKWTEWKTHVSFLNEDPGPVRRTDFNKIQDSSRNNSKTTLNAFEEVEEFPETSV
Description: Three-color spectral BRET, Luc-TRPV3/aquamarine-CaM component in mixed HEK293T cells. More on the design: expressed in transfected cells; host or cells: HEK293T (mixed with two other transfected populations). The settings on record: one mM Drofenine injected at 75 seconds, real time, mixed cell population.
Excerpt: as §1, §2

The target in assay [1] is T2, TRPV1 (Homo sapiens, UniProt Q8NER1).
T2 construct: expressed in transfected cells; host or cells: HEK293T
T2 sequence (Q8NER1 whole entry): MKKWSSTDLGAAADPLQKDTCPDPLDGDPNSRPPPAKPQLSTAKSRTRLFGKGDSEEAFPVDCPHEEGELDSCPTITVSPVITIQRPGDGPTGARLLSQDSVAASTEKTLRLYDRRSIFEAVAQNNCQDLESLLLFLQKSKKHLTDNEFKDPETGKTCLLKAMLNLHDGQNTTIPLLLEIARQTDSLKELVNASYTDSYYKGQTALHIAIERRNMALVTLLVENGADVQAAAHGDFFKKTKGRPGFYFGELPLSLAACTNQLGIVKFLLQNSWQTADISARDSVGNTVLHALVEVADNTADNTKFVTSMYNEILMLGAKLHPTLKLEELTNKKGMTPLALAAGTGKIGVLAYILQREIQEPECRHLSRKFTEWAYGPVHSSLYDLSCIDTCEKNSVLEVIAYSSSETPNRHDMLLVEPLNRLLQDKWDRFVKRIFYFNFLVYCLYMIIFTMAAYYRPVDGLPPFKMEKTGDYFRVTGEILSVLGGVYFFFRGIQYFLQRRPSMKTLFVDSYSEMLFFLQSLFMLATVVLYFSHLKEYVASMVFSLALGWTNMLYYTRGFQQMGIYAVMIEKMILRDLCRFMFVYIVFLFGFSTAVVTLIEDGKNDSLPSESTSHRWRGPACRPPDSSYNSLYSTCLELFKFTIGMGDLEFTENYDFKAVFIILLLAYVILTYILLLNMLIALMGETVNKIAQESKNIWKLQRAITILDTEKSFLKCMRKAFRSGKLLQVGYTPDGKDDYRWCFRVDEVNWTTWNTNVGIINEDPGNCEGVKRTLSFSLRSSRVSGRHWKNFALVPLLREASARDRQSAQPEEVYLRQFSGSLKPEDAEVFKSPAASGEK
Description: Calcium assay in transfected HEK293T cells. As to conditions: cells expressing TRPV1, YFP-TRPV1-Luc or TRPV1-Luc; not in mock-transfected cells.
Description: TRP channel activation was evaluated in transfected HEK293T human embryonic-kidney cells. […] For this purpose, we measured calcium entry in mock-transfected or transfected HEK293T cells with either native TRPV1 or the BRET constructs, YFP-TRPV1-Luc or TRPV1-Luc.

Assay [2] has as its target T2, TRPV1. The assay can be described thus: Three-color spectral BRET, TRPV1-Luc/mAmetrine-CaM component in mixed HEK293T cells. As to conditions: 20 μM CAPS injected at 75 seconds, real time, mixed cell population.
Description: Using the LabView programming language (National Instruments, Austin, Tex., USA), an interface was developed to run the acquisition of the bioluminescent spectra and perform real-time spectral decomposition of the BRET signal into its various components. The experimental emission spectra of Luc, YFP, mAmetrine, aquamarine, and Lss-mOrange were first obtained experimentally using a Cary Eclipse Fluorimeter (Agilent Technology, Santa Clara, Calif., USA) (FIG. 3). Each spectrum was then fitted as a sum of Gaussian curves based on Eq.3.: […]

Sequence of TRPV4 (Q9HBA0 whole entry): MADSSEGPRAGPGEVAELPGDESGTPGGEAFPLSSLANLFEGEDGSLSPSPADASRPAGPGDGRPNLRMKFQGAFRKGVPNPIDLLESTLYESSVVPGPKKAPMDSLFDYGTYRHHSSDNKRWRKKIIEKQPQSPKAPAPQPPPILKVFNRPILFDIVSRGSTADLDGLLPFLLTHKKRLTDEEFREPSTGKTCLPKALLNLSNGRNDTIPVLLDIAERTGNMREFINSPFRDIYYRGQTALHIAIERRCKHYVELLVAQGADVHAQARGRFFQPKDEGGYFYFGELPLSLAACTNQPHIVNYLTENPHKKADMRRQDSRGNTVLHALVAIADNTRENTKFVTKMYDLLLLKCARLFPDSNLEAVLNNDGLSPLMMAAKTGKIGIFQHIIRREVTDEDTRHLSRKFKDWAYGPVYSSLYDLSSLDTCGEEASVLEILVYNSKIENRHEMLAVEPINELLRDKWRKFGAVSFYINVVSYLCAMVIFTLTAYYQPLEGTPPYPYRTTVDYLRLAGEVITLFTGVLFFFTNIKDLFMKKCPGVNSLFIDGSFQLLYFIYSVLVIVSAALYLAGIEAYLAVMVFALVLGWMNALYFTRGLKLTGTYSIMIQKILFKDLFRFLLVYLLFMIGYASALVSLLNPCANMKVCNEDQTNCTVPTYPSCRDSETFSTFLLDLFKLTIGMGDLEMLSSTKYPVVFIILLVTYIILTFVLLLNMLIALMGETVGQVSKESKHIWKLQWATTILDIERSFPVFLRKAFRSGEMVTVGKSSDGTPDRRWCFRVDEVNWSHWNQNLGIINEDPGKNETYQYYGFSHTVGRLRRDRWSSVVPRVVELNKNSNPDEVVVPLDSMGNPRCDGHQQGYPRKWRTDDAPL

On to `CC(C)C[C@H](NC(=O)c1cc2ccccc2s1)C(=O)N1CCN(C(=O)[C@H](CO)NS(=O)(=O)c2ccc(Cl)cc2Cl)CC1` [GSK1016790A], for which the “TRPV4 BRET signal in three-color assay” value at TRPV4 is recorded as “time-dependent increase”.
In the case of `CCN(CC)CCOC(=O)C(c1ccccc1)C1CCCCC1` (stereo not shown) [Drofenine], the “TRPV3-related BRET component in three-color assay” value on TRPV3 was “increase in only the TRPV3-related BRET component”.
In the case of `COc1cc(CNC(=O)CCCC/C=C/C(C)C)ccc1O` [CAPS, Capsaicin], the Cytosolic calcium concentration entry at TRPV1 [1] was “rapid, maintained increase”. Besides, the “TRPV1 BRET signal in three-color assay” value on TRPV1 [2] is on record as “time-dependent increase”.
